A value given as a limit tells only on which side of the number the result lay.

Test [1] is described as follows: Inhibition of Francisella tularensis IMPDH expressed in Escherichia coli BL21(DE3) deletion in guaB gene using IMP as substrate preincubated for 10 mins followed by substrate addition in presence of NAD by spectrophotometer.
The target in test [2] is Inosine-5'-monophosphate dehydrogenase (Mycobacterium tuberculosis (strain ATCC 25618 / H37Rv)) (UniProt P9WKI7). Put plainly: Inhibition of Mycobacterium tuberculosis H37Rv IMPDH2 at 1 uM using IMP as substrate incubated for 20 mins in presence of NAD by UV spectrophotometric analysis relative to control.
Chain of Inosine-5'-monophosphate dehydrogenase (Mycobacterium tuberculosis (strain ATCC 25618 / H37Rv)) (P9WKI7 whole entry): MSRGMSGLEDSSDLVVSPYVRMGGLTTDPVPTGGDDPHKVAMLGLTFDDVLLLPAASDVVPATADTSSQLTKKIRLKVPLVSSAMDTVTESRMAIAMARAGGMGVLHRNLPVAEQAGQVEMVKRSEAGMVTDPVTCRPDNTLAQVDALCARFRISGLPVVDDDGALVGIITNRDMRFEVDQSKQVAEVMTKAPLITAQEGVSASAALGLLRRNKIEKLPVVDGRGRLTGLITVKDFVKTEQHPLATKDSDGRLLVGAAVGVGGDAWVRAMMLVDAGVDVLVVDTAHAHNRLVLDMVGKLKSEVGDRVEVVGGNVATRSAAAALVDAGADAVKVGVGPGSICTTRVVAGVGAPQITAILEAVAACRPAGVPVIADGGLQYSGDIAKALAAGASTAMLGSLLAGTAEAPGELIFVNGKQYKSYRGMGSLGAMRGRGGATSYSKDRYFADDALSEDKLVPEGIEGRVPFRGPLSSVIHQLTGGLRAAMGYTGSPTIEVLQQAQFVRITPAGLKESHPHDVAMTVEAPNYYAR
The nature of test [3]: Inhibition of Mycobacterium tuberculosis IMPDH2.
In test [4] the target is Inosine-5'-monophosphate dehydrogenase 2 (Homo sapiens) (UniProt P12268). Nature of the test: Inhibition of human IMPDH2 relative to control. The following applies: concentration not given here.
Chain of Inosine-5'-monophosphate dehydrogenase 2 (Homo sapiens) (P12268 2-514 limits assumed): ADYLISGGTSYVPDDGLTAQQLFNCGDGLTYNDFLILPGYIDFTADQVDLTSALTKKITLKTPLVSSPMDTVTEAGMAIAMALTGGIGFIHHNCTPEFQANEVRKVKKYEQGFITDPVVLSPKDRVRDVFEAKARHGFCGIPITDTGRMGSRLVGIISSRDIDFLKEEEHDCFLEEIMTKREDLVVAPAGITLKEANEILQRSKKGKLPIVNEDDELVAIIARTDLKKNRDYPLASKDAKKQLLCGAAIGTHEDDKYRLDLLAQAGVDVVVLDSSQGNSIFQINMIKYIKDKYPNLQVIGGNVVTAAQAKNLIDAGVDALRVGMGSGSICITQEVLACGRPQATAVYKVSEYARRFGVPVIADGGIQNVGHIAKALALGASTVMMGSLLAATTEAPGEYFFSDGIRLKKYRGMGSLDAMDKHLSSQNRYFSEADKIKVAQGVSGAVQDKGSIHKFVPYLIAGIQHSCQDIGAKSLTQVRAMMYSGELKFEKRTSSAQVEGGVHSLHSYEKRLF
A short description of test [5]: Inhibition of Helicobacter pylori IMPDH using IMP as substrate preincubated for 10 mins followed by addition of substrate and measured after 45 mins in presence of NAD by fluorescence based assay.
A short description of test [6]: Inhibition of Helicobacter pylori IMPDH.

One may read the Ki as a dissociation constant, usually derived from enzyme kinetics or from competition with a known ligand. For the compound `C[C@H](Oc1cccc(Cl)c1Cl)C(=O)Nc1ccc2oc(-c3ccncc3)nc2c1`, in test [1], the Ki is 22 nM.

The term inhibition denotes the change of the read-out against control, counted positive when it falls. On to `Cc1ccc([N+](=O)[O-])cc1NC(=O)Nc1cccc(Cl)c1`, for which the inhibition in test [2] was more than 90%.

By IC50 is commonly meant the concentration at which inhibition is half-maximal. As for `CC(C(=O)Nc1ccc2c(c1)COC2=O)c1ccc(C(=O)c2ccccc2)cc1` (stereo not drawn), half-maximal inhibition in test [3] (IC50) was put at 6.2 µM.

Turning to `C[C@H](Oc1cccc(Cl)c1Cl)C(=O)Nc1ccc2oc(-c3ccc(C(=O)NO)cc3)nc2c1`, in test [1], the Ki turned out to be 13 nM.

On to `O=C(Nc1ccc(Cl)c(Cl)c1)Nc1ccc(Br)cc1F`, for which the inhibition in test [2] is more than 90%.

Compound `O=C(Cc1ccc(F)c2ccccc12)Nc1ccc2c(c1)COC2=O` displayed an inhibition in test [4] of less than 0.1%. The compound also came in with an IC50 in test [3] of 3.2 µM.

For `O=C(Nc1cccc([N+](=O)[O-])c1)Nc1ccc(Cl)c(C(F)(F)F)c1`, the inhibition in test [2] was more than 90%.

For `C[C@H](Oc1cccc(Cl)c1Cl)C(=O)Nc1ccc2oc(-c3ccc(C(=O)O)cc3)nc2c1`, in test [1], the Ki was 15.5 nM.

Take `COc1cccc(Cn2cc(COc3ccc(-c4nnc(C)o4)cc3)nn2)c1`: in test [5], the IC50 came out at 4.06 µM.

Take `COc1c(C)c2c(c(O)c1C/C=C(\C)CCC(=O)O)C(=O)OC2` [MYCOPHENOLIC ACID]: the IC50 in test [3] is 27.2 µM.

In turn, `O=C(Cn1cc(C(=O)Nc2cccnc2)c2ccccc21)Nc1ccc(Br)cc1` yielded an IC50 in test [6] of 2200 nM.

Regarding `C[C@H](Oc1cccc2ccccc12)C(=O)Nc1ccc2oc(-c3ccncc3)nc2c1`, the Ki in test [1] worked out at 30 nM.
